The text below walks through data of patent US5786372A, “Heteroaryl compounds used as pharmaceuticals” (SmithKline Beecham p.l.c., priority 1992, dated 1998).

The structures appear in SMILES notation. Where a name gives a salt, the structure may show the parent alone.

For the assay, the target named is T1, 5-HT4 receptor (Cavia porcellus, UniProt O70528).
T1 construct: Longitudinal muscle-myenteric plexus preparations, approximately 3 cm long, are obtained from the distal colon region; from tissue; host or cells: guinea-pig distal colon, longitudinal muscle-myenteric plexus preparation
T1 sequence (O70528 whole entry): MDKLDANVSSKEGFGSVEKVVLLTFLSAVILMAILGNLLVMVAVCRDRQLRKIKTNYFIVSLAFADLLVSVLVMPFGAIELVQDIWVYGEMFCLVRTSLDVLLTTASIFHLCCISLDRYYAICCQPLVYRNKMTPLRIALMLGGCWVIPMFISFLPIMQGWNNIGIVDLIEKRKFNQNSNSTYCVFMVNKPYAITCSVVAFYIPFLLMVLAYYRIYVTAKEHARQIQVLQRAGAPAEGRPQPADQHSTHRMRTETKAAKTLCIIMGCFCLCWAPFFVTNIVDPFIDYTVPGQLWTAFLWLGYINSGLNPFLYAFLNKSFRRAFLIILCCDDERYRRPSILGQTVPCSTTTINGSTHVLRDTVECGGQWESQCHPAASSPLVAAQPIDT
The assay is described as follows: Guinea pig colon 5-HT4 receptor antagonist activity (longitudinal muscle-myenteric plexus, 5-HT evoked contraction). As to conditions: -log concentration of antagonist which reduces the 5-HT evoked contraction by 50%; guinea-pig distal colon; methiothepin 10^-7 M and granisetron 10^-6 M present. As for the experimental part: 5-HT4 RECEPTOR ANTAGONIST ACTIVITY
Male guinea-pigs, weighing 250-400 g are used. Longitudinal muscle-myenteric plexus preparations, approximately 3 cm long, are obtained from the distal colon region. These are suspended under a 0.5 g load in isolated tissue baths containing Krebs solution bubbled with 5% CO2 in O2 and maintained at 37° C. In all experiments, the Krebs solution also contains methiothepin 10^-7 M and granisetron 10^-6 M to block effects at 5-HT1, 5-HT2 and 5-HT3 receptors.
After construction of a simple concentration-response curve with 5-HT, using 30 s contact times and a 15 min dosing cycle, a concentration of 5-HT is selected so as to obtain a contraction of the muscle approximately 40-70% maximum (10^-9 M approx). The tissue is then alternately dosed every 15 min with this concentration of 5-HT and then with an approximately equi-effective concentration of the nicotine receptor stimulant, dimethylphenylpiperazinium (DMPP). After obtaining consistent responses to both 5-HT and DMPP, increasing concentrations of a putative 5-HT4 receptor antagonist are then added to the bathing solution. The effects of this compound are then determined as a percentage reduction of the contractions evoked by 5-HT or by DMPP. […] A compound which reduces the response to 5-HT but not to DMPP is believed to act as a 5-HT4 receptor antagonist.

As a reminder, the IC50 is the concentration at which inhibition is half-maximal. High values mean lower potency, low ones higher potency. `Nc1c(Cl)cc(C(=O)OCC2CCN(CCCO)CC2)c2c1OCCO2` [Example E1, [1-(3Hydroxypropyl)-4-piperidinyl]methyl 8-amino-7-chloro-1,4-benzodioxan-5-carboxylate hydrochloride] gave an IC50 of 0.0631 nM.
